Measured values taken from patent US10590422B2, “Anticancer therapeutic intervention” (PHYZAT BIOPHARMACEUTICALS, LDA., priority 2017, dated 2020).

How the values were obtained:
LAT1 = biological target: T1, LAT1 (Homo sapiens, UniProt Q01650); assay: Sodium-independent [^14C]-L-leucine uptake in carcinoma cells, sensitivity to unlabelled L-leucine; assay type: cell-based; settings: epithelial carcinoma cells; 3 mM unlabelled L-leucine; FIGS. 3A-3D
T1 construct: recognized the presence of LAT1 and ASCT2 in all cancer cell lines; endogenous in cells
Protocol: (§1) Cells were plated in 24-well plates (Sarstedt, Germany) and grown until confluence was reached. On the day of the experiment, cell culture medium was aspirated and cells were preincubated for 15 min in Hanks' medium (NaCl 140 mM, KCl 5 mM, MgSO4.7H2O 0.8 mM, K2HPO4 0.33 mM, KH2PO4 0.44 mM, MgCl2.6H2O 1 mM, CaCl2) 0.025 mM, Tris-HCl 9.75 mM, pH 7.4). Uptake was initiated by addition of Hanks' medium with 0.25 μM [^14C]-L-leucine in the absence and in the presence of 3 mM unlabeled L-leucine. During preincubation and incubation cells were continuously shaken and maintained at 37° C. Uptake was terminated after 1 min by rapid removal of uptake solution by means of a vacuum pump connected to a Pasteur pipette, followed by a rapid wash with Hanks' medium. Subsequently, cells were solubilized in 0.1% vol/vol Triton X-100 (dissolved in 5 mM Tris-HCl, pH 7.4), and radioactivity was measured by liquid scintillation counting.

ASCT2 = biological target: T2, ASCT2 (Homo sapiens, UniProt Q15758); assay: Sodium-dependent [^14C]-L-alanine uptake in carcinoma cells, sensitivity to unlabelled L-alanine; assay type: cell-based; settings: epithelial carcinoma cells; 3 mM unlabelled L-alanine; FIGS. 3E-3H
T2 construct: recognized the presence of LAT1 and ASCT2 in all cancer cell lines; endogenous in cells
T2 sequence (Q15758 1-541): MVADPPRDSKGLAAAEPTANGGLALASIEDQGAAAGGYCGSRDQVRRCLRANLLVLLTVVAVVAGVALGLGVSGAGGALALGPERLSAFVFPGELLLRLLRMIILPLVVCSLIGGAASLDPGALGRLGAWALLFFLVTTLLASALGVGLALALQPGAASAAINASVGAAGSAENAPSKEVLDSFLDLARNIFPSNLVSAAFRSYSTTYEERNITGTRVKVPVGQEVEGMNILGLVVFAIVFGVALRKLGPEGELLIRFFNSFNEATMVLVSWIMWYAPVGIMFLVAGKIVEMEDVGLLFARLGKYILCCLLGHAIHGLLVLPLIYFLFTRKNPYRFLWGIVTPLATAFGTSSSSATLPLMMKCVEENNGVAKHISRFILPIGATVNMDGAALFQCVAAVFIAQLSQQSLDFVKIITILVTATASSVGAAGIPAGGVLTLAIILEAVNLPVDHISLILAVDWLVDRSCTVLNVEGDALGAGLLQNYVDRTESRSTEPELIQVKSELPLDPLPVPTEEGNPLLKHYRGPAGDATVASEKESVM
Protocol: as §1, with “the experiment, Cell culture medium” for “the experiment, cell culture medium”, “Hanks' medium (ChCl 140 mM,” for “Hanks' medium (NaCl 140 mM,”, “initiated by the addition of” for “initiated by addition of”, “0.25 μM [^14C]-L-alanine in the” for “0.25 μM [^14C]-L-leucine in the”, “mM unlabeled L-alanin. During preincubation” for “mM unlabeled L-leucine. During preincubation”

T1 sequence (Q01650 whole entry): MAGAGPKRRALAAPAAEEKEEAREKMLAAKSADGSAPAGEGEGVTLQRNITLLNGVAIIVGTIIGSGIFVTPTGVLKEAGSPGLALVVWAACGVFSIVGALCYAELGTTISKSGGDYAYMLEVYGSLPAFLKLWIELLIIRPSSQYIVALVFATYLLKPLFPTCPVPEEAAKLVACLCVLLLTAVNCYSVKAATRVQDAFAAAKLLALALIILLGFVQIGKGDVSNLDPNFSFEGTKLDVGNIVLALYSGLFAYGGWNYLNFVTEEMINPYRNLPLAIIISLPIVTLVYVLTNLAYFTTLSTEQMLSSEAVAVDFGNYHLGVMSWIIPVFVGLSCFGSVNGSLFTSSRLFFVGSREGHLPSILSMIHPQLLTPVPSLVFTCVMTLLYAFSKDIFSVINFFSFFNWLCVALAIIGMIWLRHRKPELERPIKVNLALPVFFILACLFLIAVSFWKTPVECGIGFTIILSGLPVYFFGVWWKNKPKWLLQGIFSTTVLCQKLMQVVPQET
T1 sequence (P08195 102-630 partner): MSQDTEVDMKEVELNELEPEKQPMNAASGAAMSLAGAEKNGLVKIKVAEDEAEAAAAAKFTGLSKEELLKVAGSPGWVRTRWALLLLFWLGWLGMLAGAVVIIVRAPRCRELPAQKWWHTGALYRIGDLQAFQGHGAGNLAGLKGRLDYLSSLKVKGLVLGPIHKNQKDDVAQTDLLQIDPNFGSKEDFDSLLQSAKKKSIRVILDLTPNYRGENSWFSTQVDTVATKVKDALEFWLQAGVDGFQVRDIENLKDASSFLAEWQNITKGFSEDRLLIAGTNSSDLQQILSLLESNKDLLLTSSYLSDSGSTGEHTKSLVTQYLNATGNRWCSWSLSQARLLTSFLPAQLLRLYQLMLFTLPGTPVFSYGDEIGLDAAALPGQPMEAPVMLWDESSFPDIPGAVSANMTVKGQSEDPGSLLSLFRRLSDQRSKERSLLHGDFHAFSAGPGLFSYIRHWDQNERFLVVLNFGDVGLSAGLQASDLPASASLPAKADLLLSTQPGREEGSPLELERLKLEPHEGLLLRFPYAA

Row | Sodium-independent [^14C]-L-leucine (0.25 μM) uptake at initial rate of uptake (1 min) (LAT1) | Sodium-dependent [^14C]-L-alanine (0.25 μM) uptake at initial rate of uptake (1 min) (ASCT2) | Compound
1 | significantly (P<0.001) reduced | – | CC(C)C[C@H](N)C(=O)O [L-leucine]
2 | – | significantly (P<0.01) reduced | C[C@H](N)C(=O)O [L-alanine]
